Test results: patent publication US20230117470A1, “SUBSTITUTED PYRAZOLE COMPOUNDS AS TOLL RECEPTOR INHIBITORS” (BRISTOL-MYERS SQUIBB COMPANY, priority 2019, published 2023)

What was measured:
Format in all cases: cell-based
human TLR9 = target: T1, human TLR9 (Homo sapiens, UniProt Q9NR96); assay: TLR9 inhibition reporter assay (HEK-Blue cells, SEAP reporter, ODN2006 stimulation); conditions: HEK-Blue cells overexpressing human TLR9, SEAP reporter, ODN2006 5 nM
T1 construct: host or cells: HEK-Blue cells
T1 sequence (Q9NR96 26-1032): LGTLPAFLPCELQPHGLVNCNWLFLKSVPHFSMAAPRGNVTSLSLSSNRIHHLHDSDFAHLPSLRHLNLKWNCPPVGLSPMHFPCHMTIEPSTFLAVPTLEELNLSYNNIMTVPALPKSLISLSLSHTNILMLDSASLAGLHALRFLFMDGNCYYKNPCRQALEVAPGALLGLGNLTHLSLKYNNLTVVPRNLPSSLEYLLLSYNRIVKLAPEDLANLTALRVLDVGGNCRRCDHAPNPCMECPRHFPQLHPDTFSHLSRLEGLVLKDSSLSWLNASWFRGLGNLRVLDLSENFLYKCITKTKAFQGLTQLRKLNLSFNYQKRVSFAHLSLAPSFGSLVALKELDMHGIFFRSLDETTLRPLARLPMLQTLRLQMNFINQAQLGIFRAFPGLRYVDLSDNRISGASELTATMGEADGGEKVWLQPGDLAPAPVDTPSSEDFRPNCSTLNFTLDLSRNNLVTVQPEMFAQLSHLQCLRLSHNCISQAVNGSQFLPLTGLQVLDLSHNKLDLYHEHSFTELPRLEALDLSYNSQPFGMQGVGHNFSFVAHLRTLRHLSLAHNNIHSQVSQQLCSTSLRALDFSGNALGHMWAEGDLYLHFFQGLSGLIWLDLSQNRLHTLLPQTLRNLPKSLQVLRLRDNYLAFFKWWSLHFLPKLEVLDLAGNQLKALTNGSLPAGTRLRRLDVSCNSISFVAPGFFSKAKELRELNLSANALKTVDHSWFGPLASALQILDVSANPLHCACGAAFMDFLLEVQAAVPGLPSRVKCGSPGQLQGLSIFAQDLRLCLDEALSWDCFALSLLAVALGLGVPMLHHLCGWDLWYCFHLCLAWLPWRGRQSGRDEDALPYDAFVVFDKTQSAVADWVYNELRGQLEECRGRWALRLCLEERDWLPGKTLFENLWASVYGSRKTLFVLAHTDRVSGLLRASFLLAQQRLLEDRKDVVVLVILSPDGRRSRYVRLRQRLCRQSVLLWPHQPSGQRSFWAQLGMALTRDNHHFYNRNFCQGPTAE
Outline: (§1)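 Ligand levels differed by receptor: TLR7 got gardiquimod at 7.5 μM, TLR8 got R848 at 15.9 μM, and TLR9 got ODN2006 at 5 nM, each added after a 30-min room-temperature compound exposure. Incubation lasted 22 h at 37° C before colorimetric SEAP detection.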

human TLR7 = target: T2, human TLR7 (Homo sapiens, UniProt Q9NYK1); assay: TLR7 inhibition reporter assay (HEK-Blue cells, SEAP reporter, gardiquimod stimulation); conditions: HEK-Blue cells overexpressing human TLR7, SEAP reporter, gardiquimod 7.5 μM
T2 construct: host or cells: HEK-Blue cells
T2 sequence (Q9NYK1 27-1049): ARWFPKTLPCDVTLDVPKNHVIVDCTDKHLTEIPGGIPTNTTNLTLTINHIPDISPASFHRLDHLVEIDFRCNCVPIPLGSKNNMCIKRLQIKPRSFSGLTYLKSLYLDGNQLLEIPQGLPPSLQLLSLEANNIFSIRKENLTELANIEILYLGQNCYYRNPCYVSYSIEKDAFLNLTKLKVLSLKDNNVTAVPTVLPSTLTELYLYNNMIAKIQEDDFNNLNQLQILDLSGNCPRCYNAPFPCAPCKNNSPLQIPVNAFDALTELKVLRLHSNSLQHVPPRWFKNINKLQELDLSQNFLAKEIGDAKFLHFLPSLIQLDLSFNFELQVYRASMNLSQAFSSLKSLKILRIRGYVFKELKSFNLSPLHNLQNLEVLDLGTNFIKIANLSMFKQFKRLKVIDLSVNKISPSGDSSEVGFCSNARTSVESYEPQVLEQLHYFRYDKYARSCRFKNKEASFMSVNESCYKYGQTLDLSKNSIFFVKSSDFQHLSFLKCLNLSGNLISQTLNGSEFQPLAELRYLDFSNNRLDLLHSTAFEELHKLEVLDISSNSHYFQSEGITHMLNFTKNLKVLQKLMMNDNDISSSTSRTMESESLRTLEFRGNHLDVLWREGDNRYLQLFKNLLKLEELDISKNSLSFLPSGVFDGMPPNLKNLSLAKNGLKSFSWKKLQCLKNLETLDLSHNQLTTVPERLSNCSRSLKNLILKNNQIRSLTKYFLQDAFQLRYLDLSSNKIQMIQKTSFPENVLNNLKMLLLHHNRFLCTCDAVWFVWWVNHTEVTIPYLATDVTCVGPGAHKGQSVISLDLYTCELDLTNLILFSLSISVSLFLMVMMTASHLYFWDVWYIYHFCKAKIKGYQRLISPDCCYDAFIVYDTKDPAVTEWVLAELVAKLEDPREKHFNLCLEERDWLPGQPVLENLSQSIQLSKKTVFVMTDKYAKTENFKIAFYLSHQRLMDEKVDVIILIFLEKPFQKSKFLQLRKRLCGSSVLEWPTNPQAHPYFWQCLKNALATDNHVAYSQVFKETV
Outline: as §1

human TLR8 = target: T3, human TLR8 (Homo sapiens, UniProt Q9NR97); assay: TLR8 inhibition reporter assay (HEK-Blue cells, SEAP reporter, R848 stimulation); conditions: HEK-Blue cells overexpressing human TLR8, SEAP reporter, R848 15.9 μM
T3 construct: host or cells: HEK-Blue cells
T3 sequence (Q9NR97 27-1041): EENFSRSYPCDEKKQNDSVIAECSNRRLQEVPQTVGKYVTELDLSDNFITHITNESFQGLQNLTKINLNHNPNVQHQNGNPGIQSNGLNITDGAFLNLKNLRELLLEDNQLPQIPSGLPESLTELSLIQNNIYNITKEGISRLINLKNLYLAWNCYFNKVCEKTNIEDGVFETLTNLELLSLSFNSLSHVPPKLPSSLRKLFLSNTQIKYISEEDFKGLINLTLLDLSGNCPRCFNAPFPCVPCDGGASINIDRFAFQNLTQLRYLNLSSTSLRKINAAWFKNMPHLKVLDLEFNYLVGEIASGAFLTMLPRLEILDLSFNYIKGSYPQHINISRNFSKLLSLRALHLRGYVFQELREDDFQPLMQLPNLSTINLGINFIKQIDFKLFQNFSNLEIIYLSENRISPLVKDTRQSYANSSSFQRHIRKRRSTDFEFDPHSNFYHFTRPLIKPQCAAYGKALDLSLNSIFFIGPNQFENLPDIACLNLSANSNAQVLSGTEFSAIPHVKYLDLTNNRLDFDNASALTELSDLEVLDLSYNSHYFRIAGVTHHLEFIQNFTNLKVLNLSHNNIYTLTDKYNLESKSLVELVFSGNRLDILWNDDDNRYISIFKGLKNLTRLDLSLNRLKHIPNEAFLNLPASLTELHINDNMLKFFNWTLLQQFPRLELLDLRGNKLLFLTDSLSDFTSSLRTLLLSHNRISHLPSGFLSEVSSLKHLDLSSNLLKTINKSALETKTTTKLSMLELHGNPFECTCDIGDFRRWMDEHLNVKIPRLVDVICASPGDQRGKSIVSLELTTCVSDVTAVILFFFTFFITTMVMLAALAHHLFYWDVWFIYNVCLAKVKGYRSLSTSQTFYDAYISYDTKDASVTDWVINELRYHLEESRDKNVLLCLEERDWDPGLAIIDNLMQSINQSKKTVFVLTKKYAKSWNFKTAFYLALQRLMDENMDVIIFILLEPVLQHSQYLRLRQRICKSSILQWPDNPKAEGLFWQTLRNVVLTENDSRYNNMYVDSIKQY
Outline: as §1

Compound	IC50 (human TLR9)	IC50 (human TLR7)	IC50 (human TLR8)
Cc1cc(-c2[nH]nc(-c3cncc(N(C)C)c3)c2C(C)C)cn2ncnc12 [Example 238]	5370 nM	5.4 nM	5.96 nM
Cc1cc(-c2[nH]nc(-c3ncc(C4CCN(C(C)C(C)C)CC4)cn3)c2C(C)C)cn2ncnc12 (stereo not drawn) [Example 372]	8880 nM	10.7 nM	2.49 nM
Cc1cc(-c2[nH]nc(C3CCC(NCCN(C)C)CC3)c2C(C)C)cn2ncnc12 (single isomer, unassigned) [Example 285]	> 50000 nM	7.7 nM	2.71 nM
COc1cc(-c2[nH]nc(-c3ccc(C4CCN(CC5(C)COC5)CC4)cc3)c2C(C)C)cn2ncnc12 [Example 312]	> 50000 nM	5.42 nM	17.8 nM
Cc1cc(-c2[nH]nc(C(=O)NCC3CN(C(C)C)CCO3)c2C(C)C)cn2ncnc12 (stereo not drawn) [Example 141]	12800 nM	3.03 nM	13.5 nM
Cc1cc(-c2[nH]nc(-c3nc4c(s3)CN(C(C)C)CC4)c2C(C)C)cn2ncnc12 [Example 252]	> 50000 nM	67.9 nM	35.8 nM
Cc1cc(-c2[nH]nc(C(=O)NC3CCN(CCC(F)(F)F)CC3)c2C(C)C)cn2ncnc12 [Example 69, 4-isopropyl-5-(8-methyl-[1,2,4]triazolo[1,5-a]pyridin-6-yl)-N-(1-(3,3,3-trifluoropropyl)piperidin-4-yl)-1H-pyrazole-3-carboxamide]	6320 nM	4.17 nM	35.6 nM
Cc1cc(-c2[nH]nc(C3CCN(C(=O)CCNC(C)C)CC3)c2C(C)C)cn2ncnc12 [compound 210]	23800 nM	1.8 nM	1.24 nM
CNC1CCC(NC(=O)c2n[nH]c(-c3cc(C)c4ncnn4c3)c2C(C)C)CC1 (stereo not drawn) [Example 130]	11500 nM	0.45 nM	2.42 nM
Cc1cc(-c2[nH]nc(C(=O)NCC3CCNCC3)c2C(C)C)cn2ncnc12 [Example 45]	45400 nM	1.84 nM	19.5 nM
COc1cc(-c2[nH]nc(-c3nc4c(s3)CN(C(C)C)CC4)c2C(C)C)cn2ncnc12 [Example 259]	> 50000 nM	23.5 nM	13.8 nM
Cc1cc(-c2[nH]nc(C(=O)NC[C@H]3CC[C@H](N)CC3)c2C(C)C)cn2ncnc12 [Example 47]	6840 nM	2.92 nM	0.56 nM
Cc1cc(-c2[nH]nc(C(=O)NC3CN(Cc4ncn(C)n4)C3)c2C(C)C)cn2ncnc12 [Example 159]	6870 nM	8.79 nM	4.78 nM
COc1cc(-c2[nH]nc(C(=O)NC3CCN(C)CC3)c2C(C)C)cn2ncnc12 [Example 11]	18500 nM	3.78 nM	9.31 nM
CCc1c(C(=O)NC2CCN(C(C)C)CC2)n[nH]c1-c1cc(C)c2ncnn2c1 [compound 182]	13500 nM	1.74 nM	0.76 nM
Cc1cc(-c2[nH]nc(C(=O)N[C@H]3CCCN(C(C)C)C3)c2C(C)C)cn2ncnc12 [Example 163]	9400 nM	1.59 nM	20.6 nM
Cc1cc(-c2[nH]nc(C(=O)NCCc3ccccn3)c2C(C)C)cn2ncnc12 [Example 4]	287 nM	5.52 nM	33.9 nM
